# Columns and labels:
# pepsin = settings: after 2 h of incubation; cited from earlier work
# From the text: Poor protease stability is one of the main factors that has limited melittin’s clinical application.
# swine erythrocytes = experiment: Hemolytic activity assay; assay type: cell-based; settings: swine erythrocytes in PBS, 1 h, 37 °C; concentration more than 4 μg/mL
# Method: The hemolytic activity of the MDLs was evaluated as described previously with minor modification. Swine erythrocytes were collected by centrifugation at 1000 rpm for 5 min, washed three times, and suspended to a final concentration of 8% vol/vol with PBS (Macklin, Shanghai, China). Equal volumes of erythrocyte suspension and the MDLs solutions at various concentrations were mixed in a 96-well plate and incubated for 1 h at 37 °C. After centrifugation at 1000 rpm for 10 min, the supernatant was transferred to a 96-well plate. The supernatant optical density (OD) was measured at 490 nm using a microplate reader (BioTek, Winooski, VT, USA). Untreated erythrocytes and erythrocytes treated with 1% Triton X-100 (Merck, Darmstadt, Germany) were employed as the negative and positive controls, respectively. The hemolysis percentage was calculated using the following equation: Hemolysis rate%=OD490(lipopeptide)−OD490(PBS)/OD490(1% Triton X-100)−OD490(PBS)×100%
# [1] = fetal bovine serum, human serum, and human plasma; cited from earlier work
# From the text: However, binding with serum albumin would weaken the detection of the free MDLs and reduce their antibacterial activity.
# human red blood cells = settings: cited from earlier work
# Method: (§1) Despite its multiple potential biological activities, the applications for melittin are limited due to its severe hemolytic activity and low proteolytic stability. Melittin results in 50% hemolysis of human red blood cells at a concentration of 2 μM and 100% at 7 μM [19].
# trypsin = settings: cited from earlier work
# Method: as §1
# [2] = tested on: Multidrug-Resistant Escherichia coli (E. coli) Strain; assay type: cell-based; settings: NB medium, 37 °C, 18 h, three independent measurements
# From the text: The standard strains of S. aureus ATCC 43300, E. faecalis ATCC 29212, E. coli ATCC 25922, and P. aeruginosa ATCC 27853 were obtained from the American Type Culture Collection (ATCC). L. monocytogenes CVCC 3764 and B. cereus CVCC 4101 were obtained from the National Center for Veterinary Culture Collection (CVCC). S. castellani CGMCC 1.1869 was obtained from the China General Microbiological Culture Collection Center. The multidrug-resistant strain Escherichia coli was obtained from the research base of the Chongqing Academy of Animal Sciences (Chongqing, China). All strains were cultured in nutrient broth overnight at 37 °C to a logarithmic growth phase before each experiment.
# MIC was determined using the broth microdilution method with minor modification. In brief, bacteria (S. aureus ATCC 43300, E. faecalis ATCC 29212, E. coli ATCC 25922, P. aeruginosa ATCC 27853, L. monocytogenes CVCC 3764, B. cereus CVCC 4101, S. Castellani CGMCC 1.1869, and the multidrug-resistant E. coli strain) were cultured in nutrient broth (NB) medium (Macklin, Shanghai, China) to the logarithmic phase and diluted to 1 × 10^6 colony forming units (CFUs)/mL. The MDLs were dissolved to a final concentration of 256~0.25 μg/mL in NB medium using two-fold dilutions. […]
# [3] = tested on: Bacillus cereus (B. cereus) CVCC 4101; assay type: cell-based; settings: NB medium, 37 °C, 18 h, three independent measurements
# Method: (§2) MIC was determined using the broth microdilution method with minor modification. In brief, bacteria (S. aureus ATCC 43300, E. faecalis ATCC 29212, E. coli ATCC 25922, P. aeruginosa ATCC 27853, L. monocytogenes CVCC 3764, B. cereus CVCC 4101, S. Castellani CGMCC 1.1869, and the multidrug-resistant E. coli strain) were cultured in nutrient broth (NB) medium (Macklin, Shanghai, China) to the logarithmic phase and diluted to 1 × 10^6 colony forming units (CFUs)/mL. The MDLs were dissolved to a final concentration of 256~0.25 μg/mL in NB medium using two-fold dilutions. A total of 50 μL of different concentrations of the MDL solutions and an equal volume of bacterial suspension were added to a 96-well plate, which was then incubated at 37 °C for 18 h. The minimum concentrations of the MDLs with no visible growth of bacteria were defined as the corresponding MICs. Media containing bacteria without the MDLs were set as the negative control. Each measurement was performed independently three times.
# [4] = tested on: Shigella castellani (S. castellani) CGMCC 1.1869; assay type: cell-based; settings: NB medium, 37 °C, 18 h, three independent measurements
# Method: as §2
# [5] = tested on: Enterococcus faecalis (E. faecalis) ATCC 29212; assay type: cell-based; settings: NB medium, 37 °C, 18 h, three independent measurements
# Method: as §2
smiles,measurement,setting,value
"CC[C@H](C)[C@H](NC(=O)CN)C(=O)NCC(=O)N[C@@H](C)C(=O)N[C@H](C(=O)N[C@@H](CC(C)C)C(=O)N[C@@H](CCCCN)C(=O)N[C@H](C(=O)N[C@@H](CC(C)C)C(=O)N[C@H](C(=O)N[C@H](C(=O)NCC(=O)N[C@@H](CC(C)C)C(=O)N1CCC[C@H]1C(=O)N[C@@H](C)C(=O)N[C@@H](CC(C)C)C(=O)N[C@H](C(=O)N[C@@H](CO)C(=O)N[C@@H](Cc1c[nH]c2ccccc12)C(=O)N[C@H](C(=O)N[C@@H](CCCCN)C(=O)N[C@@H](CCCNC(=N)N)C(=O)N[C@@H](CCCCN)C(=O)N[C@@H](CCCNC(=N)N)C(=O)N[C@@H](CCC(N)=O)C(=O)N[C@@H](CCC(N)=O)C(N)=O)[C@@H](C)CC)[C@@H](C)CC)[C@@H](C)O)[C@@H](C)O)C(C)C)C(C)C [Mel, Melittin]",degradation by pepsin,pepsin,entirely degraded
same,hemolysis rate,swine erythrocytes,rapidly increased
same,stability in serum and plasma,[1],stable
same,concentration resulting in 50% hemolysis,human red blood cells,2 µM
same,concentration resulting in 100% hemolysis,human red blood cells,7 µM
same,melittin left after incubation with trypsin,trypsin; after 60 min of incubation,almost no melittin is left
same,digestion by trypsin,trypsin,digested rapidly
same,MIC,[2],64 µg/mL
same,MIC,[3],16 µg/mL
same,MIC,[4],32 µg/mL
same,MIC,[5],16 µg/mL

# Source: publication PMC10815238, “New N-Terminal Fatty-Acid-Modified Melittin Analogs with Potent Biological Activity” (International Journal of Molecular Sciences, 2024)
